The subject of one data set is pre-B-ALL G2 cells. Description: Cell toxicity assay (propidium iodide exclusion, flow cytometry). The settings on record: 6 and 24 h, FIG. 1. The format is cell-based, human. How it is done: FIG. 1. […] G2 cells (1×10^6/ml) were cultured in 96-well flat-bottom wells in serum free IMDEM culture medium supplemented with L-glutamine and antibiotics, for 6 and 24 h at 37° C. with the indicated peptides. Untreated cells served as a control. After treatment, cells were stained with propidium iodide (PI) and its exclusion was analyzed by flow cytometry. Data shown are the percentage of Pr (dead) cells. Vertical bars represent standard deviation of duplicate experiments. *P<0.05 compared to untreated control.
Pre-B-ALL G2 cells and freshly isolated primary human CD3^+ T cells (1×10^6/ml) were cultured in 96-well flat-bottom wells in serum free IMDM or RPMI 1640 medium, respectively, both supplemented with L-glutamine and antibiotics, for 6 and 24 hrs at 37° C. (95% humidity, 5% CO2) with 10 μM, 100 μM or 1 mM of the peptides. Untreated cells served as a control. Cell viability was determined by propidium iodide (PI) exclusion by flow cytometry as described (Goichberg, P., et al., 2006).
In order to test cytotoxicity of the peptides, human pre-B-ALL G2 cells and freshly isolated primary human CD3^+ T cells (1×10^6/ml) were cultured in with 10 μM, 100 μM or 1 mM of TL-1, AK-1 and cyclic TL-1, as described in the Material and Methods. All tested peptides were not toxic for G2 cells (FIG. 1) as well as for primary human T cells at 10 μM and 100 μM. Even in the highest concentration, 1 mM, the peptides killed only 8-12% and 14-16% cells treated for 6 and 24 hrs, respectively, indicating a very low cytotoxicity of the peptides.

The subject of another data set is SDF-1. As to the kind of experiment: SDF-1 plasma levels in injected mice (ELISA). It counts as in vivo, mouse. As to conditions: 5 mg/kg s.c., compared with mice injected with PBS. Here is the method:
(§1) SDF-1 levels in tested samples were determined by ELISA as described (Kalinkovich, A., et al., 2006) where the K15C monoclonal antibodies (mAb, INRA, Paris, France) recognizing the first three amino acids of SDF-1 were utilized as a capture Ab (10 μg/mL) in order to measure levels of intact, non-cleaved SDF-1. Levels of basic FGF (bFGF) and HGF in tested samples were determined by using corresponding capture mAbs and polyclonal biotynilated Abs (R&D Systems) as recommended by the manufacturer. In order to examine SDF-1, bFGF and HGF levels in cell supernatants, MS-5, MBA-15 and MG-63 cells were seeded in 24-well Costar wells and cultivated in RPMI 1640 or αMEM Eagle medium, respectively, with 10% FCS. When the cells reached confluence, the medium was changed to serum free medium and cells were cultivated for additional 6 hrs in the presence of various concentrations of the peptides. Medium samples were collected and centrifuged 10 min at 6000×g at 4° C. to remove cell debris. Supernatants were collected and kept at −70° C. until tested.
For orientation: In an ELISA, binding on a coated surface is turned into a signal by an enzyme label.

In a further data set the test system is MS-5 cells. Description: SDF-1, bFGF and HGF secretion by stromal cells (ELISA of supernatants). As to conditions: 10 μM, compared with untreated cells. The format is cell-based, mouse. How it is done: (§2) FIGS. 7A-7F. Effect of TL-1, AK-1 and cyclic TL-1 on SDF-1, bFGF and HGF secretion by different stromal cell lines. MS-5, MBA-15 and MG-63 cells were co-cultured with 10 μM TL-1, AK-1 or cyclic TL-1 in the serum free medium for 6 hrs, or without added peptide (UT). Levels of SDF-1 (A-C), bFGF (D) and HGF (E, F) were detected in the collected supernatants by ELISA. Data shown are the mean±SD of 2 separate experiments. *P<0.05 compared to control.
as §1
(§3) Because BM stromal cells, such as endosteal bone lining osteoblasts and endothelial cells are the main source of human and murine SDF-1, the capability of the peptides to affect SDF-1 secretion by mouse stromal MS-5 and MBA-15 cells, and human osteoblast MG-63 cells was examined.
(§4) In order to examine the capability of the peptides to induce secretion of other proteins, the levels of Hepatocyte growth factor (HGF) and Basic fibroblast growth factor (bFGF) were detected in the same supernatants.

Another data set deals with MBA-15 cells. Described as above. As to conditions: 10 μM, compared with untreated cells. The format is cell-based, mouse. How it is done:
as §2, §1, §3, §4

The test system of another data set is MG-63 cells. Described as above. It counts as cell-based, human. The settings on record: 10 μM, compared with untreated cells. Here is the method:
as §2
as §1, with “When the cells reached confluence, the medium was changed to serum free medium and cells were cultivated for additional 6 hrs in the presence of various concentrations of the peptides. Medium samples were collected and centrifuged 10 min at 6000×g at 4° C. to remove cell debris. Supernatants were collected and kept at −70° C. until tested.” left out
as §4

Peptide text beside a SMILES is read from it.

Consider `N=C(N)NCCC[C@H](NC(=O)CNC(=O)[C@@H](N)CO)C(=O)N[C@@H](CCCCN)C(=O)N[C@@H](CS)C(=O)N[C@@H](CS)C(=O)N[C@@H](CCCNC(=N)N)C(=O)N[C@@H](CCCCN)C(=O)N[C@@H](CCCCN)C(=O)N[C@@H](CCCCN)C(=O)O` [AK-1, SGRKCCRKKK] (H-SGRKCCRKKK-OH), for which, in the data set on pre-B-ALL G2 cells, the “cellular toxicity (percentage of PI+ dead cells)” value is listed as “Low cellular toxicity”.

`c1cc(CN2CCCNCCNCCCNCC2)ccc1CN1CCCNCCNCCCNCC1` [AMD3100, reference compound]: the SDF-1 plasma levels entry with SDF-1 is on record as “significant elevation”. The “levels of SDF-1 in supernatants” value in the data set with MS-5 cells, with MBA-15 cells and with MG-63 cells was “did not affect” each time.

`N=C(N)NCCC[C@H](NC(=O)CNC(=O)[C@@H](N)CCCNC(=N)N)C(=O)N[C@@H](CCCCN)C(=O)N[C@@H](CS)C(=O)N[C@@H](CS)C(=O)N[C@@H](CCCNC(=N)N)C(=O)N[C@@H](CCCNC(=N)N)C(=O)N[C@@H](CCCCN)C(=O)N[C@@H](CCCCN)C(=O)O` [TL-1, RGRKCCRRKK] (H-RGRKCCRRKK-OH): the “cellular toxicity (percentage of PI+ dead cells)” value in the data set on pre-B-ALL G2 cells is “Low cellular toxicity”.

The values are drawn from US9567371B2, “Short beta-defensin-derived peptides” (Yeda Research and Development Co. Ltd., priority 2009, dated 2017).
